Read-outs that look alike come from different tables or passages of the source.
What was measured:
[1] = system: patients with Meniere's disease and endolymphatic hydrops associated diseases; settings: for hearing level / hearing level, average (500-4000 Hz): case 4, right ear; for hearing level after treatment / hearing level after treatment, average (500-4000 Hz) / hearing improved as compared with before the treatment (four-frequency PTA): water intake
From the text: In the present case who could be followed up for more than 24 months after treatment with water intake, the therapeutic effect was judged by using the criteria of AAO-HNS (1995)^14), 15). Proviso that in an examination on changes of the hearing, although the criteria in the four-frequency pure-tone averages (PTA) of AAO-HNS (1995)^14) adopted mean values of the hearing levels consisting of 500 Hz, 1000 Hz, 2000 Hz and 3000 Hz, in our case, the value of 4000 Hz was used in stead of that of 3000 Hz.
In each figure, a horizontal axis indicates frequency (Hz) and a vertical axis indicates hearing level. […] A graph in the upper position indicates better hearing level.

[2] = system: patients with Meniere's disease and endolymphatic hydrops associated diseases; assay: Clinical course of vertigo, aural fullness, tinnitus and hearing in clinical cases; format: in vivo, patient
From the text: Therapeutic method of our invention is always performed after general examinations and standard laboratory examinations, such as blood pressure, plasma electrolytes, and urine osmolality. After consideration of body weight, age, sex, and life style, we directed the patients to take adequate water (see below) every day in combination with short-term application with isosorbite®. During the initial stage of the water intake method, recommended volume of water intake for adult male, weighing 60 kg, is calculated as 1.8-2.1 l per day according to the following formula (F 1). […] They seem to be nervous and live under the very strong psychological pressure.
The present invention is explained in detail by mentioning clinical cases.

[3] = case 1, water intake 2 lit./day continued, up to March 2004

In the case of `O` [water intake, water], the hearing level ([1]; 4000 Hz, Sep. 2003, water intake 1.5 lit./day) is reported as 40 dB, the hearing level ([1]; 8000 Hz, Aug. 2003, water intake 1.5 lit./day) is reported as 75 dB and the hearing level ([1]; 8000 Hz, Dec. 2003, water intake 1.5 lit./day) is reported as 60 dB. For the same molecule, the hearing level ([1]; 8000 Hz, Jan. 2004, water intake 1.5 lit./day) was 65 dB, the hearing level ([1]; 8000 Hz, Jul. 2003, water intake 1.5 lit./day) was 85 dB and the hearing level ([1]; 8000 Hz, Jun. 2003, water intake 1.5 lit./day from Jun. 20, 2003) was 75 dB. It also gave a hearing level ([1]; 8000 Hz, Nov. 2003, water intake 1.5 lit./day) of 65 dB, a hearing level ([1]; 8000 Hz, Oct. 2003, water intake 1.5 lit./day) of 80 dB and a hearing level ([1]; 8000 Hz, Sep. 2003, water intake 1.5 lit./day) of 80 dB. The “hearing level, average (500-4000 Hz)” value ([1]; Aug. 2003, water intake 1.5 lit./day) was 26.25 dB, the “hearing level, average (500-4000 Hz)” value ([1]; Dec. 2003, water intake 1.5 lit./day) was 22.5 dB and the “hearing level, average (500-4000 Hz)” value ([1]; Jan. 2004, water intake 1.5 lit./day) was 22.5 dB. For the same molecule, the “hearing level, average (500-4000 Hz)” value ([1]; Jul. 2003, water intake 1.5 lit./day) was 50.0 dB, the “hearing level, average (500-4000 Hz)” value ([1]; Jun. 2003, water intake 1.5 lit./day from Jun. 20, 2003) was 35.0 dB and the “hearing level, average (500-4000 Hz)” value ([1]; Nov. 2003, water intake 1.5 lit./day) was 23.75 dB. For the same molecule, the “hearing level, average (500-4000 Hz)” value ([1]; Oct. 2003, water intake 1.5 lit./day) was 25.0 dB, the “hearing level, average (500-4000 Hz)” value ([1]; Sep. 2003, water intake 1.5 lit./day) was 41.25 dB and the “hearing level after treatment” value ([1]; case 6, right ear, 125 Hz, Apr. 11, 2002, poorest level 18-24 months after treatment) was 65 dB. For the same molecule, the “hearing level after treatment” value ([1]; case 6, right ear, 250 Hz, Apr. 11, 2002, poorest level 18-24 months after treatment, before 85 dB) was 80 dB, the “hearing level after treatment” value ([1]; case 6, right ear, 500 Hz, Apr. 11, 2002, poorest level 18-24 months after treatment, before 85 dB) was 80 dB and the “hearing level after treatment” value ([1]; case 6, right ear, 1000 Hz, Apr. 11, 2002, poorest level 18-24 months after treatment, before 85 dB) was 85 dB. The “hearing level after treatment” value ([1]; case 6, right ear, 2000 Hz, Apr. 11, 2002, poorest level 18-24 months after treatment, before 75 dB) was 75 dB, the “hearing level after treatment” value ([1]; case 6, right ear, 4000 Hz, Apr. 11, 2002, poorest level 18-24 months after treatment, before 90 dB) was 90 dB and the “hearing level after treatment” value ([1]; case 6, right ear, 8000 Hz, Apr. 11, 2002, poorest level 18-24 months after treatment, before 95 dB) was 90 dB. For the same molecule, the “hearing level after treatment, average (500-4000 Hz)” value ([1]; case 6, right ear, Apr. 11, 2002, poorest level 18-24 months after treatment, before 83.75 dB) was 82.5 dB, the “hearing improved as compared with before the treatment (four-frequency PTA)” value ([1]; case 6, right ear) was 1.25 dB and the “category of change of hearing, AAO-HNS (1995) criteria” value (“category of change of hearing” below) ([1]; case 6, water intake) was “unchanged”. The “hearing level after treatment” value ([1]; case 7, left ear, 125 Hz, Oct. 10, 2003, poorest level 18-24 months after treatment, before 35 dB) was 5 dB, the “hearing level after treatment” value ([1]; case 7, left ear, 250 Hz, Oct. 10, 2003, poorest level 18-24 months after treatment, before 40 dB) was 5 dB and the “hearing level after treatment” value ([1]; case 7, left ear, 500 Hz, Oct. 10, 2003, poorest level 18-24 months after treatment, before 30 dB) was 5 dB. For the same molecule, the “hearing level after treatment” value ([1]; case 7, left ear, 1000 Hz, Oct. 10, 2003, poorest level 18-24 months after treatment, before 20 dB) was 5 dB, the “hearing level after treatment” value ([1]; case 7, left ear, 2000 Hz, Oct. 10, 2003, poorest level 18-24 months after treatment, before 10 dB) was 5 dB and the “hearing level after treatment” value ([1]; case 7, left ear, 4000 Hz, Oct. 10, 2003, poorest level 18-24 months after treatment, before 30 dB) was 20 dB. For the same molecule, the “hearing level after treatment” value ([1]; case 7, left ear, 8000 Hz, Oct. 10, 2003, poorest level 18-24 months after treatment, before 40 dB) was 45 dB, the “hearing level after treatment, average (500-4000 Hz)” value ([1]; case 7, left ear, Oct. 10, 2003, poorest level 18-24 months after treatment, before 22.5 dB) was 8.75 dB and the “hearing improved as compared with before the treatment (four-frequency PTA)” value ([1]; case 7, left ear) was 13.75 dB. The “category of change of hearing” value ([1]; case 7, water intake) was “improved”, the “hearing level after treatment” value ([1]; case 8, right ear, 125 Hz, Sep. 19, 2003, poorest level 18-24 months after treatment, before 60 dB) was 40 dB and the “hearing level after treatment” value ([1]; case 8, right ear, 250 Hz, Sep. 19, 2003, poorest level 18-24 months after treatment, before 70 dB) was 40 dB. For the same molecule, the “hearing level after treatment” value ([1]; case 8, right ear, 500 Hz, Sep. 19, 2003, poorest level 18-24 months after treatment, before 60 dB) was 35 dB, the “hearing level after treatment” value ([1]; case 8, right ear, 1000 Hz, Sep. 19, 2003, poorest level 18-24 months after treatment, before 60 dB) was 40 dB and the “hearing level after treatment” value ([1]; case 8, right ear, 2000 Hz, Sep. 19, 2003, poorest level 18-24 months after treatment, before 50 dB) was 40 dB. For the same molecule, the “hearing level after treatment” value ([1]; case 8, right ear, 4000 Hz, Sep. 19, 2003, poorest level 18-24 months after treatment, before 65 dB) was 60 dB, the “hearing level after treatment” value ([1]; case 8, right ear, 8000 Hz, Sep. 19, 2003, poorest level 18-24 months after treatment, before 85 dB) was 80 dB and the “hearing level after treatment, average (500-4000 Hz)” value ([1]; case 8, right ear, Sep. 19, 2003, poorest level 18-24 months after treatment, before 58.75 dB) was 43.75 dB. For the same molecule, the “hearing improved as compared with before the treatment (four-frequency PTA)” value ([1]; case 8, right ear) was 15.0 dB, the “category of change of hearing” value ([1]; case 8, water intake) was “improved” and the right hearing [2, 3] was “within normal range”. For the same molecule, the rotatory vertigo [2, 3] was “no rotatory vertigo was noted”, the rotatory vertigo ([2]; case 2, water intake 1.5 lit./day from Feb. 21, 2003 in addition to isosorbide 21 g/dose and difenidol hydrochloride 25 mg/dose on demand) was “remitted after May 3, 2003” and the “resound or aural fullness (in the right ear)” value ([2]; case 2, water intake 1.5 lit./day in addition to isosorbide and difenidol hydrochloride on demand) was “remitted after Aug. 18, 2003”. For the same molecule, the hearing level ([2]; case 2, water intake 1.5 lit./day in addition to isosorbide and difenidol hydrochloride on demand, to February 2004) was “maintained within normal range”, the hearing ([2]; case 3, water intake, up to January 2004) was “maintained within normal range” and the rotatory vertigo ([2]; case 3, water intake, up to January 2004, except one attack Mar. 16, 2001) was “no rotatory vertigo was recognized”. The “hearing of the right low tone” value ([2]; case 4, water intake 1.5 lit./day, October 2003 to January 2004) was “maintained improved state”, the rotatory vertigo ([2]; case 5, water intake 1.5 lit./day) was “could not be recognized after Oct. 24, 2002” and the “high frequency sensorineural hearing loss of the left ear” value ([2]; case 5, water intake 1.5 lit./day plus isosorbide 63 g t.d.s. and adenosine triphosphate 300 mg t.d.s for 2 weeks) was “improved in Oct. 24, 2002”. For the same molecule, the “low frequency sensorineural hearing loss of the left ear” value ([2]; case 5, water intake 1.5 lit./day plus isosorbide and adenosine triphosphate for 2 weeks) was “improved from Nov. 29, 2002”, the “left hearing compared with right hearing” value ([2]; case 5, water intake 1.5 lit./day, from Jul. 18, 2003) was “became equal level to the right hearing” and the left ear tinnitus ([2]; case 5, water intake 1.5 lit./day, to January 2004) was “gradually remitted”. The “rotatory vertiginous attack accompanied by tinnitus” value ([2]; case 6, water intake with isosorbide and difenidol hydrochloride on demand, after Dec. 21, 2001 until February 2004) was “no rotary vertiginous attack”, the “low frequency sensorineural hearing loss of the left ear” value ([2]; case 7, water intake 300 ml before going to sleep in addition to steroid, VB12 and PGE1) was “improved” and the left hearing ([2]; case 7, water intake continued (1.5 lit./day after September 2002), until now) was “maintained the improved state”. The “right hearing level lower as compared with the left hearing level in all frequency range” value ([2]; case 8, water intake, at present, 2 -25 dB at initial examination) was 5 -15 dB, the rotatory vertigo ([2]; case 8, water intake, during the progress after the initial examination) was “No rotatory vertigo could be recognized” and the “outcome of most of patients with Meniere's disease” value ([2]; water intake method in combination with short-term isosorbide) was “improved without re-attack for 1-2 years”.

Source: patent publication US20060003016A1, “Therapeutic method for endolymphatic hydrops associated diseases” (priority 2004, published 2006)
